Data from US9585387B1, “PEHAM dendrimers for use in agriculture” (Starpharma Pty Ltd, priority 2009, dated 2017).
Values after ≈ are worked out from the molar mass of the structure shown.

Legend:
[1] = Solubility of active constituents in dendrimer solutions by HPLC (Example 26); type: physicochemical
Description: Four PEHAM dendrimers, each at 10 g/L and 100 g/L in water, were used for evaluation. A 15 g of each dendrimer was dissolved in distilled water and made accurately to 150 mL volume. Determination of pH was then made using a calibrated pH meter and electrode.
To prepare saturated solutions of active constituent in 100 g/L dendrimer solutions, 10 mL of each 100 g/L dendrimer solution was placed into a 50 mL test tube and 0.2 g of active constituent was then also added. The test tube was then briefly shaken to disperse the contents, before being placed in an ultrasonic water bath, and subjected to sonication for 30 mins at […] The test tube and contents were then cooled to […] and then a 2.0 mL aliquot was taken and filtered through a 0.45 μm PTFE membrane filter.
To prepare saturated solutions of active constituent in 10 g/L dendrimer solutions, 1.0 mL of each 100 g/L dendrimer solution was placed into a 50 mL test tube and a 9.0 mL aliquot of distilled water added and 0.2 g of active constituent was then also added. The test tube was then briefly shaken to disperse the contents, before being placed in an ultrasonic water bath, and subjected to sonication for 30 mins at […] The test tube and contents were then cooled to […] and then a 2.0 mL aliquot was taken and filtered through a 0.45 μm PTFE membrane filter
Each prepared and filtered solution was examined in a light box for Tyndall Scattering (light scattering by particles in a colloid or particles in a fine suspension). A visual observation was made and recorded for each solution. Ten active constituents that were selected to cover a range of water solubility were treated according to the method described here. A total of 200 filtered solutions were prepared.
High Performance Liquid Chromatography was used to analyse each active constituent in each dendrimer solution. Each saturated active constituent solution was freshly prepared for immediate analysis or frozen at <−15° C. where analysis could not take place within 2 hours of preparation. The following are details of the HPLC equipment used. For each active constituent a set of 4 calibration solutions was prepared 0 to 25 ppm. A sequence of injections comparing the peak area of the calibration solutions and the dendrimer solutions was then undertaken. The dendrimer solutions were diluted as required to maintain their respective peak area response within the calibration range. The active constituent concentration (ppm) in the dendrimer solution was determined by calculation: RF×SA×DF, where RF=Response Factor (concentration of calibration solution per unit of peak area, SA=Sample Peak Area (peak area of the sample solution), and DF=Dilution Factor (dilution of the sample solution). HPLC conditions were varied to ensure the optimum detection and separation of each active constituent from excipients.

[2] = physchem; type: physicochemical; settings: water; at pH 7; trifluralin control without dendrimer; read-out: Solubility assessment by GC assay
Description: To a 10% w/w solution of agrochemical active dissolved in a suitable volatile organic solvent, (e.g., MeOH, DCM, EtOH, acetone or other appropriate solvent) was added a 10% w/w solution of dendrimer in either water or the same organic solvent as above. The mixture was left to stir for 2-4 h after which time the volatile organic solvent was then removed under reduced pressure to provide a 1:1 mixture of the active and dendrimer. This oily solution was then dissolved in water and filtered. Analysis of active content in the aqueous solution by HPLC or GC assay provided an estimate of the solubility increase due to the addition of the dendrimer.

[3] = test system: Avena sativa (cv. Echidna); assay: Brownout of oat seedlings after track-sprayer application (Example 21); type: in vivo; settings: concentrations of 0.1% v/v and above; with GrowChoice 450 g/L glyphosate
Description: The experiment tested whether the addition of dendrimers at various concentrations increased penetration into plant tissue and thus improved the rate of kill utilizing the herbicide glyphosate IPA (GrowChoice® 450 g/L present as the isopropylamine salt). Oats were selected for assessment of glyphosate efficacy because there is less genetic variation. All dosing was carried out at sublethal doses in order to witness a dose effect which is enhanced with dendrimer. A standard dose in the positive control would result in death of the oats and would be presumably replicated in the dendrimer treatments.
Avena sativa (cv. Echidna) was sown in 10 cm diameter pots filled with potting mix (AS 3743). Enough seeds were planted to ensure a minimum of seven seedlings per treatment group. Seeds were germinated in a temperature-controlled greenhouse (14° C.-25° C.) for 7 days. […]
The herbicide, glyphosate IPA (GrowChoice® 450 g/L present as the isopropylamine salt), was applied using an enclosed laboratory track-sprayer fitted with three 110° flat fan nozzles (Teejet XR11001-VS) spaced at 50 cm intervals across the boom. […] A total of 5 concentrations of the Example 2 G1-OH dendrimer (0.01, 0.05, 0.1, 0.2 & 0.5% v/v) were evaluated for enhancement of herbicidal effect at each of the rates of glyphosate tested (35, 70, 140 & 280 g ai/ha).
After 10 days the treated plants were assessed for % brownout. […]

Row | SMILES | Ratio of Active Ingredient in Dendrimer Solution (ppm) to Active Ingredient in Water (ppm) ([1]; 6-BAP, 10 g/L loading) | Ratio of Active Ingredient in Dendrimer Solution (ppm) to Active Ingredient in Water (ppm) ([1]; 6-BAP, 100 g/L loading) | Ratio of Active Ingredient in Dendrimer Solution (ppm) to Active Ingredient in Water (ppm) ([1]; Bifenthrin, 10 g/L loading) | Ratio of Active Ingredient in Dendrimer Solution (ppm) to Active Ingredient in Water (ppm) ([1]; Bifenthrin, 100 g/L loading) | Ratio of Active Ingredient in Dendrimer Solution (ppm) to Active Ingredient in Water (ppm) ([1]; Clomazone, 10 g/L loading) | Ratio of Active Ingredient in Dendrimer Solution (ppm) to Active Ingredient in Water (ppm) ([1]; Clomazone, 100 g/L loading) | Ratio of Active Ingredient in Dendrimer Solution (ppm) to Active Ingredient in Water (ppm) ([1]; Flumetsulam, 10 g/L loading) | Ratio of Active Ingredient in Dendrimer Solution (ppm) to Active Ingredient in Water (ppm) ([1]; Flumetsulam, 100 g/L loading) | Ratio of Active Ingredient in Dendrimer Solution (ppm) to Active Ingredient in Water (ppm) ([1]; Mcylobutanil, 10 g/L loading) | Ratio of Active Ingredient in Dendrimer Solution (ppm) to Active Ingredient in Water (ppm) ([1]; Mcylobutanil, 100 g/L loading) | Ratio of Active Ingredient in Dendrimer Solution (ppm) to Active Ingredient in Water (ppm) ([1]; Penconazole, 10 g/L loading) | Ratio of Active Ingredient in Dendrimer Solution (ppm) to Active Ingredient in Water (ppm) ([1]; Penconazole, 100 g/L loading) | Ratio of Active Ingredient in Dendrimer Solution (ppm) to Active Ingredient in Water (ppm) ([1]; Pendimethalin, 10 g/L loading) | Ratio of Active Ingredient in Dendrimer Solution (ppm) to Active Ingredient in Water (ppm) ([1]; Pendimethalin, 100 g/L loading) | Ratio of Active Ingredient in Dendrimer Solution (ppm) to Active Ingredient in Water (ppm) ([1]; Propaquizafop, 10 g/L loading) | Ratio of Active Ingredient in Dendrimer Solution (ppm) to Active Ingredient in Water (ppm) ([1]; Propaquizafop, 100 g/L loading) | Ratio of Active Ingredient in Dendrimer Solution (ppm) to Active Ingredient in Water (ppm) ([1]; Thiamethoxam, 10 g/L loading) | Ratio of Active Ingredient in Dendrimer Solution (ppm) to Active Ingredient in Water (ppm) ([1]; Thiamethoxam, 100 g/L loading) | Ratio of Active Ingredient in Dendrimer Solution (ppm) to Active Ingredient in Water (ppm) ([1]; Thidiazuron, 10 g/L loading) | Ratio of Active Ingredient in Dendrimer Solution (ppm) to Active Ingredient in Water (ppm) ([1]; Thidiazuron, 100 g/L loading) | other results
1 | CCC(COCC(O)CN(CCN)CCN)(COCC(O)CN(CCN)CCN)COCC(O)CN(CCN)CCN (stereo not shown) [Example 14, [(C)=TMPTGE; (IF1)=OH; (BR1)=DETA; (TF)=Primary NH2; G=1]] | 10 | 2740 | 1 | 4 | 1 | 1 | 2 | 2 | 3 | 4 | 2 | 6 | 172 | 15 | 1 | 1 | 2 | 1 | 46 | 329 | –
2 | CCCN(CCC)c1c([N+](=O)[O-])cc(C(F)(F)F)cc1[N+](=O)[O-] [trifluralin] | – | – | – | – | – | – | – | – | – | – | – | – | – | – | – | – | – | – | – | – | solubility [2]: 0.22 µg/mL (≈ 0.656 µM)
3 | CCC(COCC(O)CN(CCOC)CCOC)(COCC(O)CN(CCOC)CCOC)COCC(O)CN(CCOC)CCOC (stereo not shown) [Example 15, [(C)=TMPTGE; (FF)=Et; (IF1)=OH; (BR1)=DEA; (TF)=OMe; G=1]] | 3 | 475 | 9 | 1 | 1 | 1 | 1 | 2 | 2 | 3 | 2 | 12 | 44 | 41 | 1 | 1 | 2 | 2 | 5 | 17 | –
4 | CCC(COCC(O)CN(CC(=O)[O-])CC(=O)[O-])(COCC(O)CN(CC(=O)[O-])CC(=O)[O-])COCC(O)CN(CC(=O)[O-])CC(=O)[O-].[Na+].[Na+].[Na+].[Na+].[Na+].[Na+] (stereo not shown) [Example 10, [(C)=TMPTGE; (FF)=Et; (IF1)=OH; (BR1)=IDA; (TF)=CO2Na; G=1]] | 7 | 448 | 1 | 1 | 1 | 1 | 2 | 2 | 2 | 2 | 2 | 3 | 11 | 2 | 1 | 1 | 2 | 1 | 19 | 40 | –
5 | CCC(COCC(O)CN(CCO)CCO)(COCC(O)CN(CCO)CCO)COCC(O)CN(CCO)CCO (stereo not shown) [Example 2, [(C)=TMPTGE; (FF)=Et; (IF1)=OH; (BR1)=DEA; (TF)=OH; G=1]] | 4 | 967 | 1 | 1 | 1 | 1 | 2 | 4 | 2 | 4 | 2 | 43 | 1 | 6 | 1 | 1 | 2 | 2 | 7 | 39 | rate of brownout [3]: did enhance the rate of brownout
